Like-named read-outs stand apart in the source and are kept apart here.
Target: T1, human AspH (His6-AspH315–758) (Homo sapiens, UniProt Q12797)
T1 construct: N-Terminally His6-tagged human AspH315–758 (His6-AspH315–758) was produced in Escherichia coli BL21 (DE3) cells; made in house; host or cells: Escherichia coli BL21 (DE3), pET-28a(+) vector
T1 sequence (Q12797 315-758): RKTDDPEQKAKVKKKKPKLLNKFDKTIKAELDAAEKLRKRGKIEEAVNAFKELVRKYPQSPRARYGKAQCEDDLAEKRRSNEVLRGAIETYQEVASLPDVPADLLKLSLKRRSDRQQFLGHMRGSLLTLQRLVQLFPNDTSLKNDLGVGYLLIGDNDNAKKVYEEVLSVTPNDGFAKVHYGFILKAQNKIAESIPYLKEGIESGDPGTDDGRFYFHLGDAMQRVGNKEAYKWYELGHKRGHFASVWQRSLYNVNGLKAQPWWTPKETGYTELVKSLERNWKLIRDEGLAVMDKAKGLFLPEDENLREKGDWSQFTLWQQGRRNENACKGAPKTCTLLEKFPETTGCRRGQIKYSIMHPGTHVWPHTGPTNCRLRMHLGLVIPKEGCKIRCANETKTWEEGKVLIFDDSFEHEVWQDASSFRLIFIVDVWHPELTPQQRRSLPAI
Experiment: SPE-MS AspH inhibition assay (hFX-CP101-119 substrate hydroxylation)
Format: biochemical

[1] = AspH-inhibitor screening, 384-well Plate 1
[2] = AspH-inhibitor screening, 384-well Plate 1, substrate conversion
[3] = AspH-inhibitor screening, Plate 1-duplicate
[4] = AspH-inhibitor screening, Plate 1-duplicate, substrate conversion

Plate 1 (% inhibition) [1] [%] | Plate 1 (% conversion) [2] [%] | Plate 1-duplicate (% inhibition) [3] [%] | Plate 1-duplicate (% conversion) [4] [%] | Compound | other results
5.18 | 47.36 | 4.86 | 49.63 | Cc1cccc(-c2nn3c(c2-c2ccnc4ccc(C(N)=O)cc24)CCC3)n1 [LY2157299] | –
-13.39 | 55.93 | -13.16 | 58.57 | CC(C)(C)Cn1c(N)nc2ccc(-c3[nH]c(C(C)(C)C)nc3-c3ccc(F)cc3)nc21 [LY2228820 (CP868569)] | –
-51.46 | 73.51 | -47.27 | 75.48 | Cc1cnc(NC(=O)Nc2cc(Br)c(C)cc2OC[C@@H]2CNCCO2)cn1 [LY2603618_Rabusertib] | –
-63.83 | 79.23 | -64.31 | 83.93 | Cc1cc(Nc2cc(CN3CCOCC3)c3nc(C)c(Cc4ccc(Cl)cc4F)n3n2)n[nH]1 [LY2784544_Gandotinib] | –
10.44 | 44.93 | -5.64 | 54.84 | CN(C)C[C@@H]1CCn2cc(c3ccccc32)C2=C(C(=O)NC2=O)c2cn(c3ccccc23)CCO1.CS(=O)(=O)O [LY 333531 mesylate_Ruboxistaurin] | –
– | – | – | – | CS(=O)(=O)CCNCc1ccc(-c2ccc3ncnc(Nc4ccc(OCc5cccc(F)c5)c(Cl)c4)c3c2)o1.Cc1ccc(S(=O)(=O)O)cc1.Cc1ccc(S(=O)(=O)O)cc1 [Lapatinib, di-p-toluenesulfonate salt] | Plate 1 (% conversion): 63.38%; Plate 1 (% inhibition): -29.52%; Plate 1-duplicate (% conversion): 62.65%; Plate 1-duplicate (% inhibition): -21.39%
4.47 | 47.69 | -1.73 | 52.90 | Oc1ccc2c(c1)CC[C@H](c1ccccc1)[C@@H]2c1ccc(OCCN2CCCC2)cc1 [Lasofoxifene] | –
– | 47.43 | 4.54 | 49.79 | Nc1cccc2c1CN(C1CCC(=O)NC1=O)C2=O (centres unmarked) [Lenalidomide] | –
-19.98 | 58.98 | -15.77 | 59.86 | COc1cc2nccc(Oc3ccc(NC(=O)NC4CC4)c(Cl)c3)c2cc1C(N)=O [Lenvatinib] | –
6.85 | 46.59 | 3.67 | 50.22 | N#Cc1ccc(C(c2ccc(C#N)cc2)n2cncn2)cc1 [Letrozole] | –
5.31 | 47.30 | 8.11 | 48.02 | Nc1nc(OCc2cc(Br)cs2)c2[nH]cnc2n1 [Lomeguatrib] | –
-7.19 | 53.07 | -12.48 | 58.23 | CNC(=O)c1ccc(N2C(=S)N(c3ccc(C#N)c(C(F)(F)F)c3)C(=O)C2(C)C)cc1F [MDV3100_Enzaluamide] | –
4.45 | 47.69 | 6.61 | 48.76 | Nc1ccccc1NC(=O)c1ccc(CNc2nccc(-c3cccnc3)n2)cc1 [MGCD0103_Mocetinostat] | –
74.52 | 15.34 | 67.97 | 18.33 | COCCNCc1ccc(-c2cc3nccc(Oc4ccc(NC(=S)NC(=O)Cc5ccc(F)cc5)cc4F)c3s2)nc1 [MGCD-265] | –
5.75 | 47.09 | 1.85 | 51.12 | C=CCn1c(=O)c2cnc(Nc3ccc(N4CCN(C)CC4)cc3)nc2n1-c1cccc(C(C)(C)O)n1 [MK1775] | –
11.87 | 44.27 | 9.89 | 47.14 | O=C(O)CC[C@H]1CC[C@@](c2cc(F)ccc2F)(S(=O)(=O)c2ccc(Cl)cc2)CC1 [MK-0752] | –
-21.29 | 59.58 | -13.95 | 58.96 | NC1(c2ccc(-c3nc4ccn5c(=O)[nH]nc5c4cc3-c3ccccc3)cc2)CCC1 [MK-2206] | –
7.39 | 46.34 | 9.73 | 47.22 | Cl.NC(=O)c1cccc2cn(-c3ccc([C@@H]4CCCNC4)cc3)nc12 [MK-4827, HCl salt] | –
2.38 | 48.65 | -0.45 | 52.27 | NS(=O)(=O)OC[C@@H]1C[C@@H](n2ccc3c(N[C@H]4CCc5ccccc54)ncnc32)C[C@@H]1O [MLN4924] | –
2.09 | 48.78 | 7.11 | 48.51 | COc1cc(Nc2ncc3c(n2)-c2ccc(Cl)cc2C(c2c(F)cccc2OC)=NC3)ccc1C(=O)O [MLN8237_Alisertib] | –
-15.10 | 56.72 | -11.47 | 57.73 | Cc1ccc(NC(=O)c2ccc(CN3CCN(C)CC3)cc2)cc1Nc1nc(-c2cccnc2)cs1 [Masitinib] | –
-14.51 | 56.45 | 7.27 | 48.44 | CC(=O)O[C@]1(C(C)=O)CC[C@H]2[C@@H]3C=C(C)C4=CC(=O)CC[C@]4(C)[C@H]3CC[C@@]21C [Megestrol acetate] | –
7.41 | 46.33 | 10.69 | 46.74 | S=c1[nH]cnc2nc[nH]c12 [Mercaptopurine] | –
5.05 | 47.42 | 7.45 | 48.35 | CN(C)C(=N)NC(=N)N.Cl [Metformin hydrochloride aq] | –
15.11 | 42.77 | 17.38 | 43.42 | CN(Cc1cnc2nc(N)nc(N)c2n1)c1ccc(C(=O)N[C@@H](CCC(=O)O)C(=O)O)cc1 [Methotrexate] | –
0.45 | 49.54 | 1.60 | 51.25 | COc1c2occc2cc2ccc(=O)oc12 [Methoxsalen] | –
8.67 | 45.75 | 6.32 | 48.91 | C[C@H]1C[C@@H]2[C@H]([C@@H](O)C[C@@]3(C)[C@H]2CC[C@]3(O)C(=O)CO)[C@@]2(C)C=CC(=O)C=C12 [Methylprednisolone] | –
– | – | – | – | CO[C@@H]1[C@H](N(C)C(=O)c2ccccc2)C[C@H]2O[C@]1(C)n1c3ccccc3c3c4c(c5c6ccccc6n2c5c31)C(=O)NC4 [Midostaurin, reference compound] | IC50 (50 nM His6-AspH315–758, 1 μM hFX-CP101–119, 100 μM LAA, 3 μM 2OG, 2 μM FAS, 50 mM HEPES pH 7.5, 20 °C, read-out: IC50): 9.43 ± 3.07 µM; IC50 (read-out: IC50 at 10 μM substrate, 10 μM hFX-CP101–119 and 10 μM 2OG instead of 1 μM hFX-CP101–119 and 3 μM 2OG): 6.02 ± 1.32 µM; IC50 (read-out: IC50 at 20 μM Fe(II), 20 μM Fe(II) instead of 2 μM Fe(II)): 7.28 ± 0.9 µM; IC50 (read-out: IC50 at 200 μM 2OG, 200 μM 2OG instead of 3 μM 2OG): 12.4 ± 2.9 µM

Compound | Plate 1 (% inhibition) [1] [%] | Plate 1 (% conversion) [2] [%] | Plate 1-duplicate (% inhibition) [3] [%] | Plate 1-duplicate (% conversion) [4] [%] | other results
CS(=O)(=O)CCNCc1ccc(-c2ccc3ncnc(Nc4ccc(OCc5cccc(F)c5)c(Cl)c4)c3c2)o1 [Lapatinib] | -31.93 | 64.49 | -19.57 | 61.75 | –
C[C@]12O[C@H](C[C@]1(O)CO)n1c3ccccc3c3c4c(c5c6ccccc6n2c5c31)CNC4=O [Lestaurtinib] | 20.36 | 40.35 | 16.08 | 44.07 | –
O=NN(CCCl)C(=O)NC1CCCCC1 [Lomustine] | 9.88 | 45.19 | 8.61 | 47.77 | –
Cl.N[C@@H](Cc1ccc(N(CCCl)CCCl)cc1)C(=O)O [Melphalan hydrochloride] | 8.23 | 45.95 | 3.67 | 50.22 | –
N[C@@H](Cc1ccc(N(CCCl)CCCl)cc1)C(=O)O [Melphalan] | 9.41 | 45.40 | 3.88 | 50.12 | –

From PMC7588595, “Small-molecule active pharmaceutical ingredients of approved cancer therapeutics inhibit human aspartate/asparagine-β-hydroxylase” (Bioorganic & Medicinal Chemistry, 2020)
